The values below come from patent publication US20020035111A1, “Method of inhibiting neoplastic cells with tetracyclic pyrido[3,4-B] indole derivatives” (priority 1998, published 2002).

Take `COc1ccc([C@H]2c3[nH]c4ccc(F)cc4c3C[C@@H]3C(=O)N(CC(F)(F)F)CC(=O)N23)cc1` (relative stereo) [Example 5, Cis-2,3,6,7,12,12a-Hexahydro-10-Fluoro-6-(4-Methoxyphenyl)-2-(2,2,2-Trifluoroethyl)-Pyrazino(2′,1′:6,1)Pyrido(3,4-b)Indole-1,4-Dione]: the melting point was found to be 190 °C. Next, `O=C1[C@H]2Cc3c([nH]c4ccccc34)[C@H](c3ccc4c(c3)OCO4)N2C(=O)CN1Cc1cccnc1` (relative stereo) [Example 11, Cis-2,3,6,7,12,12a-Hexahydro-2-(3-Pyridylmethyl)-6-(3,4-Methylenedioxyphenyl)-Pyrazino(2′,1′:6,1)Pyrido(3,4-b)Indole-1,4-Dione]: 292 to 293 °C; `O=C1[C@H]2Cc3c([nH]c4ccccc34)[C@H](c3ccc4c(c3)OCO4)N2C(=O)CN1CC(F)(F)F` (relative stereo) [Example 14, Cis-2,3,6,7,12,12a-Hexahydro-2-(2,2,2-Trifluoroethyl)-6-(3,4-Methylenedioxyphenyl)-Pyrazino(2′,1′:6,1)Pyrido(3,4-b)Indole-1,4-Dione]: 303 °C; `CC(C)N1CC(=O)N2[C@@H](c3ccc4c(c3)OCO4)c3[nH]c4ccccc4c3C[C@@H]2C1=O` (relative stereo) [Example 16, Cis-2,3,6,7,12,12a-Hexahydro-2-Isopropyl-6-(3,4-Methylenedioxyphenyl) Pyrazino(2′,1′:6,1)Pyrido(3,4-b)Indole-1,4-Dione]: 248 to 250 °C. Next, `O=C1[C@H]2Cc3c([nH]c4ccccc34)[C@H](c3ccc4c(c3)OCO4)N2C(=O)CN1Cc1ccccc1` (relative stereo) [Example 23, Cis-2,3,6,7,12,12a-Hexahydro-2-Benzyl-6-(3,4-Methylenedioxyphenyl)Pyrazino(2′,1′:6,1)Pyrido(3,4-b)Indole-1,4-Dione]: 285 to 287 °C; `COc1ccc([C@H]2c3[nH]c4ccccc4c3C[C@@H]3C(=O)N(CC(F)(F)F)CC(=O)N23)cc1` (relative stereo) [Example 28, Cis-2,3,6,7,12,12a-Hexahydro-6-(4-Methoxyphenyl)-2-(2,2,2-Trifluoroethyl)Pyrazino(2′,1′:6,1)Pyrido(3,4-b)Indole-1,4-Dione]: 232 °C; `COc1ccc([C@H]2c3[nH]c4ccccc4c3C[C@@H]3C(=O)N(Cc4ccccc4)CC(=O)N23)cc1` (relative stereo) [Example 32, Cis-2,3,6,7,12,12a-Hexahydro-2-Benzyl-6-(4-Methoxyphenyl)Pyrazino(2′,1′:6,1)Pyrido(3,4-b)Indole-1,4-Dione]: 275 to 279 °C. Next, `O=C1[C@H]2Cc3c([nH]c4ccccc34)[C@H](c3ccc4c(c3)CCO4)N2C(=O)CN1CC1CC1` (relative stereo) [Example 37, Cis-2,3,6,7,12,12a-Hexahydro-6-(2,3-Dihydrobenzo(b)Furan-5-yl)-2-Cyclopropylmethyl-Pyrazino(2′,1′:6,1)Pyrido(3,4-b)Indole-1,4-Dione]: 165 to 166 °C; `CCCCN1CC(=O)N2[C@@H](c3ccccc3Cl)c3[nH]c4ccccc4c3C[C@@H]2C1=O` (relative stereo) [Example 40, Cis-2,3,6,7,12,12a-Hexahydro-2-Butyl-6-(2-Chlorophenyl) Pyrazino(2′,1′:6,1)Pyrido(3,4-b)Indole-1,4-Dione]: 146 °C; `CN1CC(=O)N2[C@@H](c3ccc4c(c3)CCCC4)c3[nH]c4ccccc4c3C[C@@H]2C1=O` (relative stereo) [Example 47, Cis-2,3,6,7,12,12a-Hexahydro-2-Methyl-6-(1,2,3,4-Tetrahydro-6-Naphthyl)Pyrazino(2′,1′:6,1)Pyrido(3,4-b)Indole-1,4-Dione]: 260 °C. Molecule `CC(C)N1CC(=O)N2[C@@H](c3ccc4c(c3)CCCC4)c3[nH]c4ccccc4c3C[C@@H]2C1=O` (relative stereo) [Example 48, Cis-2,3,6,7,12,12a-Hexahydro-2-Isopropyl-6-(1,2,3,4-Tetrahydro-6-Naphthyl)Pyrazino(2′,1′:6,1)Pyrido(3,4-b)Indole-1,4-Dione] registered a melting point of 244 to 246 °C. Next, `CN1CC(=O)N2[C@@H](c3ccc(Br)s3)c3[nH]c4ccccc4c3C[C@@H]2C1=O` (relative stereo) [Example 52, Cis-2,3,6,7,12,12a-Hexahydro-6-(5-Bromo-2-Thienyl)-2-Methylpyrazino(2′,1′:6,1)Pyrido(3,4-b)Indole-1,4-Dione]: 258 °C; `CN1CC(=O)N2[C@@H](c3cc(Br)cs3)c3[nH]c4ccccc4c3C[C@@H]2C1=O` (relative stereo) [Example 53, Cis-2,3,6,7,12,12a-Hexahydro-6-(4-Bromo-2-Thienyl)-2-Methylpyrazino(2′,1′:6,1)Pyrido(3,4-b)Indole-1,4-Dione]: 292 °C; `Cc1ccc([C@H]2c3[nH]c4ccccc4c3C[C@@H]3C(=O)N(C)CC(=O)N23)s1` (relative stereo) [Example 56, Cis-2,3,6,7,12,12a-Hexahydro-2-Methyl-6-(5-Methyl-2-Thienyl)Pyrazino(2′,1′:6,1)Pyrido(3,4-b)Indole-1,4-Dione]: 282 °C. Next, `CCCCN1CC(=O)N2[C@@H](c3ccsc3)c3[nH]c4ccccc4c3C[C@@H]2C1=O` (relative stereo) [Example 58, Cis-2,3,6,7,12,12a-Hexahydro-2-Butyl-6-(3-Thienyl)-Pyrazino(2′,1′:6,1)Pyrido(3,4-b)Indole-1,4-Dione]: 236 to 239 °C; `CN1CC(=O)N2[C@@H](c3ccoc3)c3[nH]c4ccccc4c3C[C@@H]2C1=O` (relative stereo) [Example 59, Cis-2,3,6,7,12,12a-Hexahydro-2-Methyl-6-(3-Furyl)-Pyrazino(2′,1′:6,1)Pyrido(3,4-b)Indole-1,4-Dione]: 250 °C; `Cc1ccc([C@H]2c3[nH]c4ccccc4c3C[C@@H]3C(=O)N(C)CC(=O)N23)o1` (relative stereo) [Example 60, Cis-2,3,6,7,12,12a-Hexahydro-2-Methyl-6-(5-Methyl-2-Furyl)-Pyrazino(2′,1′:6,1)Pyrido(3,4-b)Indole-1,4-Dione]: 303 °C. Next, `CCCCN1CC(=O)N2[C@@H](c3ccc(C)cc3)c3[nH]c4ccccc4c3C[C@@H]2C1=O` (relative stereo) [Example 63, Cis-2,3,6,7,12,12a-Hexahydro-2-Butyl-6-(4-Methylphenyl)-Pyrazino(2′,1′:6,1)Pyrido(3,4-b)Indole-1,4-Dione]: 194 °C; `CC(C)c1ccc([C@H]2c3[nH]c4ccccc4c3C[C@@H]3C(=O)N(C)CC(=O)N23)cc1` (relative stereo) [Example 74, Cis-2,3,6,7,12,12a-Hexahydro-6-(4-Isopropylphenyl)-2-Methylpyrazino(2′,1′:6,1)Pyrido(3,4-b)Indole-1,4-Dione]: 244 °C. `CCCCN1CC(=O)N2[C@@H](c3ccc(NS(C)(=O)=O)cc3)c3[nH]c4ccccc4c3C[C@@H]2C1=O` (relative stereo) [Example 100, Cis-2,3,6,7,12,12a-Hexahydro-2-Butyl-6-(4-Methylsulfonamidophenyl)-Pyrazino(2′,1′:6,1)Pyrido(3,4-b)Indole-1,4-Dione]: the melting point came to 188 °C.

The melting point is the temperature of the solid-liquid transition.
